From US20090209633A1, “Treatment of Pain With Resiniferatoxin and Related Analogs” (priority 2006, published 2009)

Key:
rat TRPV1 = biological target: T1, rat TRPV1 (Rattus norvegicus, UniProt O35433); assay: Whole-cell currents in Xenopus laevis oocytes expressing TRPV1 (double-electrode voltage clamp); format: cell-based; conditions: capsaicin 300 nM; for activation time (10-90% of the rising phase): holding −60 mV, protons pH 5.5, RTX 10 nM; for reversal potential of agonist-induced whole-cell current: ramp −80 to +80 mV in 1 s; for reversal/deactivation of current on agonist removal: −60 mV, pH 5.5, NADA 10 μM, washout >15 min for RTX
T1 construct: expressed in transfected cells; host or cells: Xenopus laevis oocytes injected with TRPV1 cRNA
T1 sequence (O35433 whole entry): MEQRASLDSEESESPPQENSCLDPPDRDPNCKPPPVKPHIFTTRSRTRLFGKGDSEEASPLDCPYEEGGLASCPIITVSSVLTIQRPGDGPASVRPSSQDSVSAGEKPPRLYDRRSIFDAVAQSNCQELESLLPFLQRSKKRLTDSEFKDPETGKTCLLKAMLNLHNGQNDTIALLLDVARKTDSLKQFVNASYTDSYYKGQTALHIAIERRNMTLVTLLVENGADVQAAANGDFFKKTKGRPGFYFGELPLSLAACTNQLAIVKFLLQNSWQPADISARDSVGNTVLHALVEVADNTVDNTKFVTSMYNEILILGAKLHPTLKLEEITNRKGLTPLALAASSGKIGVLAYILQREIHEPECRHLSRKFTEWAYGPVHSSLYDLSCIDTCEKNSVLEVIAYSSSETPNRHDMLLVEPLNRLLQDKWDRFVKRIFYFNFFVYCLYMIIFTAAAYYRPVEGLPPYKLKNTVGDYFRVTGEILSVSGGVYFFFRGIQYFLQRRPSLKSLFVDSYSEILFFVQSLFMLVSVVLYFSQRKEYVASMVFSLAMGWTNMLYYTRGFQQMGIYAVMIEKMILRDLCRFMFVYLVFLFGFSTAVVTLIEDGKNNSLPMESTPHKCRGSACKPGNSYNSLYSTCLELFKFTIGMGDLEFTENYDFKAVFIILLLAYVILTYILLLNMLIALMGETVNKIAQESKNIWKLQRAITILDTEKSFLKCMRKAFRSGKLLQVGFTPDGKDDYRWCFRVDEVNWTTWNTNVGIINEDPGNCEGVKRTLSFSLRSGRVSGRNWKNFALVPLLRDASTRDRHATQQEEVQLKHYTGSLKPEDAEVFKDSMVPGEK
Method: Rat TRPV1 dcRNA. Cloned rat TRPV1 was obtained from the Julius Lab at the University of California San Francisco. TRPV1 cRNA was obtained using standard techniques known to those of skill in the art.
(§1) Electrophysiology. Whole-cell and single-channel currents were recorded from rat DRG neurons in culture and from Xenopus laevis oocytes injected with rat TRPV1 cRNA. Animals were cared for according to the standards of the National Institutes of Health (NIH). All animal use protocols were approved by Southern Illinois University School of Medicine Animal Care Committee.
Oocytes were obtained by an abdominal incision after anaesthetizing the frog by immersion in a 0.05% solution of 3-aminobenzoic acid ethyl ester (MS222). Animals were killed by a subcutaneous injection of a 2% solution of MS222 according to NIH guidelines. One day after separating the oocytes from the follicular layer, 50-70 nl TRPV1 cRNA was injected using a Drummond Nanoject (Drummond Scientific Co., Broomall, Pa., USA). Oocytes were used for recording from 3 days after the injection. Double-electrode voltage clamp was performed using a Warner amplifier (Warner Instruments, Hamden, Conn., USA). Data were digitized and stored on videotape or directly stored on the computer using a LabView interface (National Instruments, Austin, Tex., USA). Experiments were performed at 21-23° C. Oocytes were placed in a Perspex chamber superfused (5-10 ml min^−1) with Ca^2+-free Ringer solution containing (mM): NaCl 100, KCl 2.5 and Hepes 5; pH adjusted to 7.35 with NaOH. Current-voltage relationships were measured using 1-s voltage ramps from −80 to +80 mV.
This example tests the activation of whole-cell currents in oocytes by RTX. Whole-cell currents were recorded from oocytes heterologously expressing TRPV1. […] Agonist-induced currents are shown after subtracting the leak current in the absence of the agonist. […] In order to quantify this, we calculated the ratio of outward and inward currents. […] PKC activation increases sensitivity as well as TRPV1 translocation. […] (Szallasi et al. 1990b; Caterina et al. 1997; Marshall et al. 2003.)

native TRPV1 = biological target: T2, native TRPV1 (Rattus norvegicus, UniProt O35433); assay: Whole-cell currents in cultured embryonic DRG neurons (patch clamp); format: cell-based; conditions: for activation phase of whole-cell current: −60 mV; for reversibility of induced current: RTX 10 and 100 nM, washout >15 min
T2 construct: RTX-induced membrane currents on native TRPV1 in embryonic DRG neurons grown in culture; endogenous in cells; host or cells: primary rat E18 DRG neurons
T2 sequence (O35433 whole entry): as above
Method: as §1
Primary DRG neuronal cultures were prepared from embryonic day 18 (E18) rat embryos. Adult pregnant rats were killed with an overdose of isoflurane. DRG were dissected and the cells were dissociated by triturating with a fire-polished glass pipette. Cells were cultured in Neurobasal medium (Life Technologies, Buffalo, N.Y., USA), supplemented with 10% fetal bovine serum (FBS), and grown on poly-D-lysine-coated glass coverslips. Cells were used from 5 to 15 days after plating. Small diameter (<30 μm) rounded neurons were selected for patch-clamp experiments. […] The Giga-seal patch-clamp technique was used to record whole-cell currents. For perforated-patch recordings, the bath solution contained (mM): sodium gluconate 140, KCl 2.5, Hepes 10, MgCl2 1 and ethylene glycol bis(2-aminoethyl ether)-N,N,N′N′-tetraacetic acid (EGTA) 1.5 (pH adjusted to 7.35 with NaOH), and the pipette solution contained (mM): sodium gluconate 130, NaCl 10, KCl 2.5, Hepes 10, MgCl2 1, EGTA 1.5 and 240 μg/ml^−1 amphotericin B (pH adjusted to 7.35 with NaOH). For current-clamp experiments the pipette solution contained (mM): potassium gluconate 130, NaCl 10, MgCl2 1, EGTA 0.2, K2ATP 1 and Hepes 10; pH adjusted to 7.35 with NaOH. Extracellular solution for current- and voltage-clamp experiments contained (mM): NaCl 140, KCl 4, MgCl2 1 and Hepes 10; pH adjusted to 7.35 with NaOH. Currents were recorded using a WPC 100 patch-clamp amplifier (E.S.F. Electronic, Goettingan, Germany). Data were filtered at 10 kHz, digitized (VR-10B, Instrutech Corp., Great Neck, N.Y., USA) and stored on videotapes or directly stored in the computer using a LabView interface. For analysis of whole-cell currents, data were filtered at 1 kHz (−3 db frequency with an 8-pole low-pass Bessel filter, Warner Instruments, LPF-8) and digitized at 2 kHz.
This example tests the activation of whole-cell current in DRG neurons by RTX. We determined the properties of RTX-induced membrane currents on native TRPV1 in embryonic DRG neurons grown in culture. […] Protons were not used to elicit currents because of the presence of acid-sensitive ion channels in these neurons.

## C=C(C)[C@]12C[C@@H](C)[C@@]34O[C@](Cc5ccccc5)(O[C@@H]1[C@@H]3C=C(COC(=O)Cc1ccc(O)c(OC)c1)C[C@]1(O)C(=O)C(C)=C[C@@H]41)O2 [RTX, resiniferatoxin]
Rat TRPV1
  activation time (10-90% of the rising phase): 61.4±4.4 s
Rat TRPV1; RTX 10 nM
  reversal potential of agonist-induced whole-cell current: −10.4±0.53 mV
  reversal/deactivation of current on agonist removal: did not deactivate even after a prolonged washout
Rat TRPV1; ramp −80 to +80 mV, RTX 10 nM
  ratio of outward and inward currents (rectification): 2.35±0.97
Native TRPV1; RTX 10 nM
  activation phase of whole-cell current: 69 ± 10.9 s
Native TRPV1; RTX 100 nM
  activation phase of whole-cell current: 29.35 ± 2.65 s
Native TRPV1; capsaicin 1 μM
  reversibility of induced current: could not be reversed readily

## COc1cc(CNC(=O)CCCC/C=C/C(C)C)ccc1O [capsaicin]
Rat TRPV1
  activation time (10-90% of the rising phase): 23.9±1.5 s
Rat TRPV1; RTX 10 nM
  reversal potential of agonist-induced whole-cell current: −12.3±0.42 mV
  reversal/deactivation of current on agonist removal: could be reversed readily
Native TRPV1; capsaicin 1 μM
  reversibility of induced current: readily reversible
  activation phase of whole-cell current: 7.14 ± 0.42 s
Native TRPV1; small diameter cultured DRG neurons
  neurons responding to capsaicin: More than 70%
